According to patent US9980951B2, “Image guided therapy for cancer” (UNIVERSITY OF IOWA RESEARCH FOUNDATION, priority 2015, dated 2018):
Where “and” joins values, the source holds several entries; their conditions need not be identical. Identical values can stand only once.

Key:
[1] = tested on: A375 melanoma cells; test: JC-1 mitochondrial membrane potential assay; type: cell-based, human; conditions: A375, 10 μM, 1 h
Source text: (§1) JC-1 mitochondrial membrane potential assays were used to determine that TPVP derivatives are designed to accumulate in melanoma cell mitochondria and disrupt the membrane potential of melanoma cells relative to nonmalignant cells (FIG. 2).
(§2) Mitochondrial membrane potential is an important parameter of mitochondrial function. In healthy cells (with high mitochondrial potential), JC-1 spontaneously forms complexes known as J-aggregates that fluoresce in the red region. In unhealthy cells with a low mitochondria membrane potential or cells whose membrane integrity is disrupted with uncoupling agents (e.g., FCCP), JC-1 remains in the monomeric form, with fluorescence in the green region. Therefore, the ratio of Jaggregate to monomer fluorescence is an indicator of mitochondrial membrane potential and cellular health.
(§3) Experiments were performed using human metastatic BRAFV600E mutant A375 (ATCC CRL-1619) human melanoma cells, metastatic BRAFV600E mutant SK-Mel-3 (ATCC HTB-69) human melanoma cells isolated from a lymph node metastasis, and nonmetastatic normal human fibroblasts (NHFs) provided by the Coriell Institute (AG13442). All cells were cultured at 21% O2 at 37° C. in a humidified 5% CO2 incubator. Cells were detached with 0.25% trypsin-EDTA. A375 and NHF cells were cultured in high-glucose DMEM medium supplemented with 1% PenStrep and 10% FBS. SK-Mel-3 cells were cultured in high-glucose McCoy's 5A medium supplemented with 1% PenStrep and 15% FBS. All medium components were purchased from Gibco.
(§4) A375 cells were plated in a black, clear-bottom 96 well plate at a density of 1.5×10^4 cells per well. SK-Mel-3 and NHF cells were plated in a black, clear-bottom 96 well plate at a density of 2.5×10^4 cells […]. After 24 h, cells were treated with 2.5, 5.0, or 10 μM 18:2-TPVP or DPDVP for 1 h. Cells were then washed and incubated with 2.0 μM JC-1 (Cayman) in PBS containing 5 mM pyruvate (Gibco) for 1 h. Control dishes were treated with 1.0 μM FCCP (Sigma-Alrich) 30 min prior to measurement. Cells were washed and analyzed in PBS using a spectrophotometer at 530 and 590 nm.

[2] = tested on: SK-Mel-3 melanoma cells; test: JC-1 mitochondrial membrane potential assay; type: cell-based, human; conditions: SK-Mel-3, 10 μM, 1 h
Source text: as §1, §2, §3, §4

[3] = tested on: A375 melanoma cells; test: Intracellular ATP measurement (CellTiter-Glo luciferase assay); type: cell-based, human; conditions: 24 h; for concentration of ATP relative to the untreated control: A375, 2.5, 5.0, or 10 μM
Experimental: (§5) TPVP derivatives embed in the mitochondria of malignant cells and increase the oxidation state relative to NHFs. Therefore, intracellular ATP levels were measured to determine the potential impact of TPVP-based treatment on cell viability (FIG. 4). This platereader-based luciferase assay is a selective method for determining the number of viable cells by quantifying the ATP-dependent oxygenation of luciferin. […] Specifically, A375 ATP levels were depleted from 1.5 mM to less than 0.8 mM after exposure to all three compounds at 10 μM.
as §3
(§6) A375 cells were plated in 60 mm culture dishes at a density of 1.5×10^5 cells per dish. SK-Mel-3 and NHF cells were plated in 60 mm culture dishes at a density of 2.5×10^5 cells per dish. After 48 h, cells were exposed to 2.5, 5.0 or 10 μM of PTVP, DPDVP, or 18:2-TPVP for 24 h and analyzed for intracellular ATP content using the CellTiter-Glo Luminescent Cell Viability Assay (Promega).

[4] = tested on: SK-Mel-3 melanoma cells; test: as above; type: cell-based, human; conditions: SK-Mel-3, 5.0 μM and 10 μM, 24 h
Experimental: as §5, §3, §6

[5] = tested on: normal human fibroblasts (NHFs); test: JC-1 mitochondrial membrane potential assay; type: cell-based; conditions: 10 μM, 1 h
Source text: as §1, §2
Experiments were performed using human metastatic BRAFV600E mutant A375 (ATCC CRL-1619) human melanoma cells, metastatic BRAFV600E mutant SK-Mel-3 (ATCC HTB-69) human melanoma cells isolated from a lymph node metastasis, and nonmetastatic normal human fibroblasts (NHFs) provided by the Coriell Institute (AG13442). All cells were cultured at 21% O2 at 37° C. in a humidified 5% CO2 incubator. […]
A375 cells were plated in a black, clear-bottom 96 well plate at a density of 1.5×10^4 cells per well. […] Cells were washed and analyzed in PBS using a spectrophotometer at 530 and 590 nm.

[6] = tested on: normal human fibroblasts (NHFs); test: Clonogenic survival assay; type: cell-based; conditions: NHF, 5.0 μM, 24 h
Experimental: To further test the hypothesis that TPVP derivatives can be designed to decrease viability in melanoma cells relative to normal cells, clonogenic survival assays were performed (FIG. 6). The clonogenic cell survival assay is used often as a measure of the ability of cells to proliferate indefinitely. In these studies, cells were exposed to varying concentrations of TPVP derivatives for 24 h. After exposure to cytotoxic compounds, cells were collected, counted, and reseeded at a low density. The cells then undergo a series of doublings, forming cell colonies. These colonies were then counted, and the resulting cell survival curve reports the dose of the agent used to produce an insult and the fraction of cells retaining their ability to reproduce. […] Specifically, 18:2-TPVP decreases clonogenic survival to <50% at 5.0 μM for both A375 and SK-Mel-3 cells and <20% at 7.5 μM. […]
A375 cells were plated in 60 mm culture dishes at a density of 1.5×10^5 cells per dish. […] After the exposure period, cells were collected, counted, and plated at either 500 (A375 and NHF) or 3000 (SK-Mel-3) cells per 60 mm dish. […]

[7] = tested on: A375 melanoma cells; test: Clonogenic survival assay; type: cell-based, human; conditions: 24 h; for clonogenic survival relative to the untreated control: A375, 5.0, 7.5, and 10 μM
Experimental: (§7) To further test the hypothesis that TPVP derivatives can be designed to decrease viability in melanoma cells relative to normal cells, clonogenic survival assays were performed (FIG. 6). The clonogenic cell survival assay is used often as a measure of the ability of cells to proliferate indefinitely. In these studies, cells were exposed to varying concentrations of TPVP derivatives for 24 h. After exposure to cytotoxic compounds, cells were collected, counted, and reseeded at a low density. The cells then undergo a series of doublings, forming cell colonies. These colonies were then counted, and the resulting cell survival curve reports the dose of the agent used to produce an insult and the fraction of cells retaining their ability to reproduce. […] Specifically, 18:2-TPVP decreases clonogenic survival to <50% at 5.0 μM for both A375 and SK-Mel-3 cells and <20% at 7.5 μM.
as §3
(§8) A375 cells were plated in 60 mm culture dishes at a density of 1.5×10^5 cells per dish. SKMel-3 and NHF cells were plated in 60 mm culture dishes at a density of 2.5×10^5 cells per dish. After 48 h, cells were treated with 1.0, 2.5, 5.0, 7.5, or 10 μM of PTVP, DPDVP, or 18:2-TPVP for 24 h. After the exposure period, cells were collected, counted, and plated at either 500 (A375 and NHF) or 3000 (SK-Mel-3) cells per 60 mm dish. Following a 2 week incubation, medium was removed and colonies fixed with ethanol and stained with Coommassie Brilliant Blue. Data were normalized to each untreated control, and the surviving fraction was reported.

[8] = tested on: SK-Mel-3 melanoma cells; test: Clonogenic survival assay; type: cell-based, human; conditions: 24 h; for clonogenic survival relative to the untreated control: SK-Mel-3, 5.0, 7.5, and 10 μM
Experimental: as §7, §3, §8

[9] = tested on: normal human fibroblasts (NHFs); test: Confocal microscopy, mitochondrial accumulation and colocalization with Mito Tracker Red; type: cell-based; conditions: 1 μM, 3 h
Experimental: (§9) Confocal microscopy was used to determine that 10-TPVP preferentially accumulates in the mitochondria of melanoma cells and fluoresces upon aggregation in mitochondrial membranes of melanoma cells relative to nonmalignant cells (FIG. 1). […] NHF cells have a basal level of 10-TPVP accumulation, supporting the hypothesis that TPVP derivatives preferentially accumulate by targeting the hyperpolarized mitochondrial membrane (FIG. 1; Column II).
as §3
(§10) A375, SK-Mel-3, and NHF cells were cultured at a density of 2.5×104, 5×104, or 7.5×104, respectively, on a 4 well glass chamber slide for 24 h prior to exposure to test compounds. […]

[10] = tested on: A375 melanoma cells; test: as above; type: cell-based, human; conditions: A375, 1 μM, 3 h
Experimental: as §9, §3, §10

[11] = tested on: SK-Mel-3 melanoma cells; test: as above; type: cell-based, human; conditions: SK-Mel-3, 1 μM, 3 h
Experimental: as §9, §3, §10

[12] = tested on: normal human fibroblasts (NHFs); test: DHE oxidation; type: cell-based; conditions: 10 μM, 1 h
Source text: (§11) Oxidation-sensitive dihydroethidium (DHE) was used to determine if mitochondrial-accumulated TPVP derivatives alter the oxidation state of melanoma cells (FIG. 3). DHE is a blue-fluorescent superoxide-sensitive probe that accumulates in the cytosol of healthy cells. However, upon reaction with superoxide, DHE intercalates with DNA and forms a red-fluorescent product (2-hydroxyethidium). Therefore, the shift to red fluorescence is an indicator of the change in the redox state of the cell.
as §3
(§12) A375 cells were plated in a black, clearbottom 96 well plate at a density of 1.5×10^4 cells per well. […] Cells were analyzed using a spectrophotometer at 590 nm.

[13] = tested on: A375 melanoma cells; test: DHE oxidation; type: cell-based, human; conditions: A375, 10 μM, 1 h, normalized to untreated control
Source text: as §11, §3, §12

[14] = tested on: SK-Mel-3 melanoma cells; test: DHE oxidation; type: cell-based, human; conditions: SK-Mel-3, 10 μM, 1 h, normalized to untreated control
Source text: as §11, §3, §12

Row | SMILES | decrease of JC-1 aggregate to monomer fluorescence ratio [1] | decrease of JC-1 aggregate to monomer fluorescence ratio [2] | concentration of ATP relative to the untreated control [3] | decrease of JC-1 aggregate to monomer fluorescence ratio [5] | clonogenic survival relative to the untreated control [7] | clonogenic survival relative to the untreated control [8] | also measured
1 | CCCCC/C=C\C/C=C\CCCCCCCC[n+]1ccc(C(=C(c2ccccc2)c2ccccc2)c2ccccc2)cc1.[Br-] [18:2-TPVP, 1-((9Z,12Z)-Octadeca-9,12-dien-1-yl)-4-(1,2,2-triphenylvinyl)pyridin-1-ium Bromide] | 55% | 40% | significantly decreases | 20% | significantly decrease | significantly decrease | intracellular ATP relative to NHFs ([3]; A375, all concentrations (1, 5, or 10 μM)): significantly decreases; intracellular ATP relative to NHFs [4]: significantly decreases; clonogenic survival [6]: 75%; clonogenic survival ([7]; A375, 5.0 μM): < 50% and 40%; clonogenic survival ([7]; A375, 7.5 μM): < 20%; clonogenic survival relative to NHFs ([7]; A375, 2.5, 5.0, 7.5, and 10 μM): significant decrease; clonogenic survival ([8]; SK-Mel-3, 5.0 μM): < 50% and 30%; clonogenic survival ([8]; SK-Mel-3, 7.5 μM): < 20%; clonogenic survival relative to NHFs ([8]; SK-Mel-3, 2.5, 5.0, 7.5, and 10 μM): significant decrease
2 | CCCCCCCCCC[n+]1ccc(C(=C(c2ccccc2)c2ccccc2)c2ccccc2)cc1.[Br-] [Compound 10-TPVP, 1-Decyl-4-(1,2,2-triphenylvinyl)pyridin-1-ium Bromide] | – | – | – | – | – | – | accumulation in mitochondria by confocal microscopy [9]: does not significantly accumulate; accumulation in cells by confocal microscopy [10]: easily observable; accumulation in cells by confocal microscopy [11]: easily observable; DHE fluorescence intensity [12]: does not significantly alter; increase of DHE oxidation [13]: 3 fold; increase of DHE oxidation [14]: 2 fold
3 | CCCCCCCCCC[n+]1ccc(C(=C(c2ccccc2)c2ccccc2)c2cc[n+](CCCCCCCCCC)cc2)cc1.[Br-].[Br-] [DPDVP, 4,4′-(2,2-Diphenylethene-1,1-diyl)bis(1-decylpyridin-1-ium) Bromide] | 50% | 30% | significantly decreases | 10% | significantly decrease | significantly decrease | –
4 | CCCCCCCCCC[n+]1ccc(C(=C(c2cc[n+](CCCCCCCCCC)cc2)c2cc[n+](CCCCCCCCCC)cc2)c2ccccc2)cc1.[Br-].[Br-].[Br-] [PTVP, 4,4′,4″-(2-Phenylethene-1,1,2-triyl)tris(1-decylpyridin-1-ium) Bromide] | – | – | significantly decreases | – | significantly decrease | significantly decrease | –
